Laboratory results as given in PubChem BioAssay (NCI).
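The compound was tested at five concentrations on cells cultured in 96-well plates, with a 48-hour exposure period. Definition used: TGI = concentration required for complete inhibition of growth.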

How the values were obtained:
Experiment in all cases: NCI anticancer screen, dose series, 48 h
BT-549 breast = test system: BT-549 breast
MDA-N = test system: MDA-N
NCI-H23 lung = test system: NCI-H23 lung
UO-31 renal = test system: UO-31 renal
MALME-3M melanoma = test system: MALME-3M melanoma
LOX IMVI melanoma = test system: LOX IMVI melanoma
SF-295 CNS = test system: SF-295 CNS
MOLT-4 leukemia = test system: MOLT-4 leukemia
DU-145 prostate = test system: DU-145 prostate
CAKI-1 renal = test system: CAKI-1 renal

## Oc1ccccc1/C=N/c1nc2cc3sc(/N=C/c4ccccc4O)nc3cc2s1
BT-549 breast
  TGI: > 100 µM
MDA-N
  TGI: > 100 µM
NCI-H23 lung
  TGI: > 100 µM
UO-31 renal
  TGI: > 100 µM
MALME-3M melanoma
  TGI: > 100 µM
LOX IMVI melanoma
  TGI: > 100 µM
SF-295 CNS
  TGI: > 100 µM
MOLT-4 leukemia
  TGI: 81.2 µM
DU-145 prostate
  TGI: > 100 µM
CAKI-1 renal
  TGI: > 100 µM

## COc1ccc(CC(O)CN2CCOCC2)cc1 (stereo not given)
BT-549 breast
  TGI: > 100 µM
MDA-N
  TGI: > 100 µM
NCI-H23 lung
  TGI: > 100 µM
UO-31 renal
  TGI: > 100 µM
MALME-3M melanoma
  TGI: > 100 µM
LOX IMVI melanoma
  TGI: > 100 µM
SF-295 CNS
  TGI: > 100 µM
MOLT-4 leukemia
  TGI: > 100 µM
DU-145 prostate
  TGI: > 100 µM
CAKI-1 renal
  TGI: > 100 µM

## O=c1cc(N=P(c2ccccc2)(c2ccccc2)c2ccccc2)n(-c2ccccc2)c(=O)n1-c1ccccc1
BT-549 breast
  TGI: 95.6 µM
MDA-N
  TGI: 43.7 µM
NCI-H23 lung
  TGI: 32 µM
UO-31 renal
  TGI: 34.6 µM
MALME-3M melanoma
  TGI: 33.5 µM
LOX IMVI melanoma
  TGI: 49.5 µM
SF-295 CNS
  TGI: 85.8 µM
MOLT-4 leukemia
  TGI: 22 µM
DU-145 prostate
  TGI: > 100 µM
CAKI-1 renal
  TGI: > 100 µM

## O=C1c2cc3c(cc2CC1Br)CCC3 (stereo not given)
BT-549 breast
  TGI: 4.49 µM
MDA-N
  TGI: 3.48 µM
NCI-H23 lung
  TGI: 9.27 µM
UO-31 renal
  TGI: 22.4 µM
MALME-3M melanoma
  TGI: 2.82 µM
LOX IMVI melanoma
  TGI: 2 µM
SF-295 CNS
  TGI: 11.5 µM
MOLT-4 leukemia
  TGI: 4.56 µM
DU-145 prostate
  TGI: 29.4 µM
CAKI-1 renal
  TGI: 3.23 µM

## Clc1ccc(-c2nn3c(-c4ccncc4)nnc3s2)cc1
BT-549 breast
  TGI: > 100 µM
MDA-N
  TGI: > 100 µM
NCI-H23 lung
  TGI: > 100 µM
UO-31 renal
  TGI: > 100 µM
MALME-3M melanoma
  TGI: > 100 µM
LOX IMVI melanoma
  TGI: > 100 µM
SF-295 CNS
  TGI: > 100 µM
MOLT-4 leukemia
  TGI: > 100 µM
DU-145 prostate
  TGI: > 100 µM
CAKI-1 renal
  TGI: > 100 µM

## O=C1/C(=C\c2cccc(Oc3ccccc3)c2)S(=O)(=O)C(c2ccccc2)N1Cc1ccccc1 (stereo not given)
BT-549 breast
  TGI: 98.6 µM
MDA-N
  TGI: 95.5 µM
NCI-H23 lung
  TGI: > 100 µM
UO-31 renal
  TGI: 47.9 µM
MALME-3M melanoma
  TGI: 37.8 µM
LOX IMVI melanoma
  TGI: 62.9 µM
SF-295 CNS
  TGI: > 100 µM
MOLT-4 leukemia
  TGI: 7.7 µM
DU-145 prostate
  TGI: 74 µM
CAKI-1 renal
  TGI: 75 µM
